Reference: patent US6274715A, “Tricyclic erythromycin derivatives” (priority 1997, dated 2001)
Values after ≈ are worked out from the molar mass of the structure shown.

Columns and labels:
Type in all cases: cell-based
[1] = system: STAPHYLOCOCCUS AUREUS ATCC 6538P; test: In vitro antibacterial activity, MIC, BHI agar dilution; details: S. aureus ATCC 6538P, 35-37° C., 20 to 24 hours, unit assumed
[2] = system: STAPHYLOCOCCUS AUREUS A5177; test: as above; details: S. aureus A5177, unit assumed
[3] = system: STAPHYLOCOCCUS AUREUS A-5278; test: as above; details: S. aureus A-5278, unit assumed
[4] = system: STAPHYLOCOCCUS AUREUS CMX 642A; test: as above; details: S. aureus CMX 642A, unit assumed
[5] = system: STAPHYLOCOCCUS AUREUS NCTC10649M; test: as above; details: S. aureus NCTC10649M, unit assumed
[6] = system: STAPHYLOCOCCUS AUREUS CMX 553; test: as above; details: S. aureus CMX 553, unit assumed
[7] = system: STAPHYLOCOCCUS AUREUS 1775; test: as above; details: S. aureus 1775, unit assumed
[8] = system: STAPHYLOCOCCUS EPIDERMIDIS 3519; details: S. epidermidis 3519; BHI agar; unit assumed
EN[…] ATCC 8043 = test: In vitro antibacterial activity, MIC, BHI agar dilution; details: E. faecium ATCC 8043, unit assumed
Method in brief: (§1)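 MIC was read visually as the lowest drug level with no growth, a slight haze or sparsely isolated colonies relative to a compound-free growth control. Organisms were spotted at 1:100 dilution (1:10 for slow-growing strains) onto Brain Heart Infusion agar containing serial compound dilutions and incubated 20 to 24 hours at 35-37° C.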

M[…] ATCC 4698 = test: as above; details: M. luteus ATCC 4698, unit assumed
Method in brief: as §1

M[…] ATCC 9341 = test: as above; details: M. luteus ATCC 9341, unit assumed
Method in brief: as §1

STR[…] 508 = test: as above; details: S. agalactiae CMX 508, unit assumed
Method in brief: as §1

[9] = system: STREPTOCOCCUS BOVIS A-5169; test: as above; details: S. bovis A-5169, unit assumed
[10] = system: STREPTOCOCCUS PYOGENES EES61; test: as above; details: S. pyogenes EES61, unit assumed
[11] = system: STREPTOCOCCUS PYOGENES 930; test: as above; details: S. pyogenes 930, unit assumed
[12] = system: STREPTOCOCCUS PYOGENES PIU 2548; test: as above; details: S. pyogenes PIU 2548, unit assumed
ESCHERICHIA COLI JUHL = details: E. coli JUHL; BHI agar; unit assumed
ESCHERICHIA COLI SS = test: In vitro antibacterial activity, MIC, BHI agar dilution; details: E. coli SS, unit assumed
ESCHERICHIA COLI DC-2 = test: as above; details: E. coli DC-2, unit assumed
ESCHERICHIA COLI H560 = test: as above; details: E. coli H560, unit assumed
ESCHERICHIA COLI KNK 437 = details: E. coli KNK 437; BHI agar; unit assumed
[13] = system: ENTEROBACTER AEROGENES ATCC 13048; test: In vitro antibacterial activity, MIC, BHI agar dilution; details: E. aerogenes ATCC 13048, unit assumed
[14] = system: PROVIDENCIA STUARTII CMX 640; details: P. stuartii CMX 640; BHI agar; unit assumed
[15] = system: PSEUDOMONAS AERUGINOSA BMH10; test: In vitro antibacterial activity, MIC, BHI agar dilution; details: P. aeruginosa BMH10, unit assumed
[16] = system: PSEUDOMONAS AERUGINOSA 5007; test: as above; details: P. aeruginosa 5007, unit assumed
[17] = system: PSEUDOMONAS AERUGINOSA K799/WT; test: as above; details: P. aeruginosa K799/WT, unit assumed
[18] = system: PSEUDOMONAS AERUGINOSA K799/61; test: as above; details: P. aeruginosa K799/61, unit assumed
PSEUDOMONAS CEPACIA 296I = test: as above; details: P. cepacia 296I, unit assumed
[19] = system: PSEUDOMONAS AERUGINOSA DPHD-5263; test: as above; details: P. aeruginosa DPHD-5263, unit assumed
[20] = system: PSEUDOMONAS AERUGINOSA DPHD-2862; test: as above; details: P. aeruginosa DPHD-2862, unit assumed
CANDIDA ALBICANS CCH 442 = test: as above; details: C. albicans CCH 442, unit assumed
[21] = system: MYCOBACTERIUM SMEGMATIS ATCC 114; test: as above; details: M. smegmatis ATCC 114, unit assumed
H. Influenza Dill AMP R = test: In vitro antibacterial activity against H. Influenza Dill AMP R, MIC; details: separate assay, unit assumed
Protocol: Representative compounds of the present invention were assayed in vitro for antibacterial activity as follows: Twelve petri dishes containing successive aqueous dilutions of the test compound mixed with 10 mL of sterilized Brain Heart Infusion (BHI) agar (Difco 0418-01-5) were prepared. Each plate was inoculated with 1:100 (or 1:10 for slow-growing strains, such as Micrococcus and Streptococcus) dilutions of up to 32 different microorganisms, using a Steers replicator block. The inoculated plates were incubated at 35-37° C. for 20 to 24 hours. In addition, a control plate, using BHI agar containing no test compound, was prepared and incubated at the beginning and end of each test.
After incubation, each plate was visually inspected. The minimum inhibitory concentration (MIC) was defmed as the lowest concentration of drug yielding no growth, a slight haze, or sparsely isolated colonies on the inoculum spot as compared to the growth control.
In a separate assay representative compounds of the invention were assayed in vitro for antibacterial activity against the H. Influenza Dill AMP R strain, according to the protocol described above.

[22] = system: KLEBSIELLA PNEUMONIAE ATCC 8045; test: In vitro antibacterial activity, MIC, BHI agar dilution; details: K. pneumoniae ATCC 8045, unit assumed
[23] = system: ACINETOBACTER CALCOACETICUS CMX 669; test: as above; details: A. calcoaceticus CMX 669, unit assumed

## CC[C@H]1OC(=O)[C@H](C)C(=O)[C@H](C)[C@@H](O[C@@H]2O[C@H](C)C[C@H](N(C)C)[C@H]2O)[C@](C)(OC)C[C@@H](C)C2=NC[C@H](COCc3cccc(F)c3)N3C(=O)O[C@@]1(C)[C@H]3[C@H]2C [Example 72]
[1]
  MIC: 0.1 µg/mL (≈ 0.129 µM)
[2]
  MIC: 0.1 µg/mL (≈ 0.129 µM)
[3]
  MIC: > 100 µg/mL
[4]
  MIC: 0.1 µg/mL (≈ 0.129 µM)
[5]
  MIC: 0.1 µg/mL (≈ 0.129 µM)
[6]
  MIC: 0.1 µg/mL (≈ 0.129 µM)
[7]
  MIC: > 100 µg/mL
[8]
  MIC: 0.2 µg/mL (≈ 0.258 µM)
EN[…] ATCC 8043
  MIC: 0.05 µg/mL (≈ 0.0644 µM)
M[…] ATCC 4698
  MIC: 0.2 µg/mL (≈ 0.258 µM)
M[…] ATCC 9341
  MIC: ≤ 0.005 µg/mL
STR[…] 508
  MIC: 0.01 µg/mL (≈ 0.0129 µM)
[9]
  MIC: ≤ 0.005 µg/mL
[10]
  MIC: 0.01 µg/mL (≈ 0.0129 µM)
[11]
  MIC: 50 µg/mL (≈ 64.4 µM)
[12]
  MIC: 0.39 µg/mL (≈ 0.503 µM)
ESCHERICHIA COLI JUHL
  MIC: 50 µg/mL (≈ 64.4 µM)
ESCHERICHIA COLI SS
  MIC: 0.39 µg/mL (≈ 0.503 µM)
ESCHERICHIA COLI DC-2
  MIC: 25 µg/mL (≈ 32.2 µM)
ESCHERICHIA COLI H560
  MIC: 12.5 µg/mL (≈ 16.1 µM)
ESCHERICHIA COLI KNK 437
  MIC: 50 µg/mL (≈ 64.4 µM)
[13]
  MIC: 50 µg/mL (≈ 64.4 µM)
[14]
  MIC: > 100 µg/mL
[15]
  MIC: 50 µg/mL (≈ 64.4 µM)
[16]
  MIC: 100 µg/mL (≈ 129 µM)
[17]
  MIC: 50 µg/mL (≈ 64.4 µM)
[18]
  MIC: 0.39 µg/mL (≈ 0.503 µM)
PSEUDOMONAS CEPACIA 296I
  MIC: 50 µg/mL (≈ 64.4 µM)
[19]
  MIC: > 100 µg/mL
[20]
  MIC: > 100 µg/mL
CANDIDA ALBICANS CCH 442
  MIC: > 100 µg/mL
[21]
  MIC: 0.39 µg/mL (≈ 0.503 µM)
H. Influenza Dill AMP R
  MIC: 2 µg/mL (≈ 2.58 µM)

## CC[C@H]1OC(=O)[C@H](C)C(=O)[C@H](C)[C@@H](O[C@@H]2O[C@H](C)C[C@H](N(C)C)[C@H]2O)[C@](C)(OC)C[C@@H](C)C2=NC3CN(CCc4ccccc4[N+](=O)[O-])CC3N3C(=O)O[C@@]1(C)[C@H]3[C@H]2C (stereo partly drawn) [Example 119]
[1]
  MIC: 0.39 µg/mL (≈ 0.471 µM)
[2]
  MIC: 0.39 µg/mL (≈ 0.471 µM)
[3]
  MIC: > 100 µg/mL
[4]
  MIC: 0.39 µg/mL (≈ 0.471 µM)
[5]
  MIC: 0.2 µg/mL (≈ 0.242 µM)
[6]
  MIC: 0.2 µg/mL (≈ 0.242 µM)
[7]
  MIC: > 100 µg/mL
[8]
  MIC: 0.39 µg/mL (≈ 0.471 µM)
EN[…] ATCC 8043
  MIC: 0.1 µg/mL (≈ 0.121 µM)
M[…] ATCC 4698
  MIC: 0.39 µg/mL (≈ 0.471 µM)
M[…] ATCC 9341
  MIC: 0.05 µg/mL (≈ 0.0604 µM)
STR[…] 508
  MIC: 0.02 µg/mL (≈ 0.0242 µM)
[9]
  MIC: 0.02 µg/mL (≈ 0.0242 µM)
[10]
  MIC: 0.02 µg/mL (≈ 0.0242 µM)
[11]
  MIC: > 100 µg/mL
[12]
  MIC: 0.78 µg/mL (≈ 0.942 µM)
ESCHERICHIA COLI JUHL
  MIC: 100 µg/mL (≈ 121 µM)
ESCHERICHIA COLI SS
  MIC: 0.78 µg/mL (≈ 0.942 µM)
ESCHERICHIA COLI DC-2
  MIC: > 100 µg/mL
ESCHERICHIA COLI H560
  MIC: > 100 µg/mL
ESCHERICHIA COLI KNK 437
  MIC: > 100 µg/mL
[13]
  MIC: > 100 µg/mL
[22]
  MIC: > 100 µg/mL
[14]
  MIC: > 100 µg/mL
[15]
  MIC: > 100 µg/mL
[16]
  MIC: > 100 µg/mL
[17]
  MIC: > 100 µg/mL
[18]
  MIC: 0.78 µg/mL (≈ 0.942 µM)
PSEUDOMONAS CEPACIA 296I
  MIC: > 100 µg/mL
[23]
  MIC: 100 µg/mL (≈ 121 µM)
[19]
  MIC: > 100 µg/mL
[20]
  MIC: > 100 µg/mL
CANDIDA ALBICANS CCH 442
  MIC: > 100 µg/mL
[21]
  MIC: 0.78 µg/mL (≈ 0.942 µM)

## CC[C@H]1OC(=O)[C@H](C)C(=O)[C@H](C)[C@@H](O[C@@H]2O[C@H](C)C[C@H](N(C)C)[C@H]2O)[C@](C)(OC)C[C@@H](C)C2=NCC(CNCc3ccccc3)N3C(=O)O[C@@]1(C)[C@H]3[C@H]2C (stereo partly drawn) [Example 131]
[1]
  MIC: 0.39 µg/mL (≈ 0.515 µM)
[2]
  MIC: 0.39 µg/mL (≈ 0.515 µM)
[3]
  MIC: > 100 µg/mL
[4]
  MIC: 0.39 µg/mL (≈ 0.515 µM)
[5]
  MIC: 0.39 µg/mL (≈ 0.515 µM)
[6]
  MIC: 0.39 µg/mL (≈ 0.515 µM)
[7]
  MIC: > 100 µg/mL
[8]
  MIC: 0.39 µg/mL (≈ 0.515 µM)
EN[…] ATCC 8043
  MIC: 0.1 µg/mL (≈ 0.132 µM)
M[…] ATCC 4698
  MIC: 0.2 µg/mL (≈ 0.264 µM)
M[…] ATCC 9341
  MIC: 0.02 µg/mL (≈ 0.0264 µM)
STR[…] 508
  MIC: 0.05 µg/mL (≈ 0.0661 µM)
[10]
  MIC: 0.02 µg/mL (≈ 0.0264 µM)
[11]
  MIC: > 100 µg/mL
[12]
  MIC: 0.78 µg/mL (≈ 1.03 µM)
ESCHERICHIA COLI JUHL
  MIC: 50 µg/mL (≈ 66.1 µM)
ESCHERICHIA COLI SS
  MIC: 0.2 µg/mL (≈ 0.264 µM)
ESCHERICHIA COLI DC-2
  MIC: 25 µg/mL (≈ 33 µM)
ESCHERICHIA COLI H560
  MIC: 12.5 µg/mL (≈ 16.5 µM)
ESCHERICHIA COLI KNK 437
  MIC: 25 µg/mL (≈ 33 µM)
[13]
  MIC: 50 µg/mL (≈ 66.1 µM)
[14]
  MIC: > 100 µg/mL
[15]
  MIC: > 100 µg/mL
[16]
  MIC: > 100 µg/mL
[17]
  MIC: 50 µg/mL (≈ 66.1 µM)
[18]
  MIC: 0.78 µg/mL (≈ 1.03 µM)
PSEUDOMONAS CEPACIA 296I
  MIC: 25 µg/mL (≈ 33 µM)
[19]
  MIC: > 100 µg/mL
[20]
  MIC: > 100 µg/mL
CANDIDA ALBICANS CCH 442
  MIC: > 100 µg/mL
[21]
  MIC: 1.56 µg/mL (≈ 2.06 µM)
H. Influenza Dill AMP R
  MIC: 4 µg/mL (≈ 5.28 µM)
